What was measured:
Ih channel = conditions: literature: Neuroscience 1994 (zatebradine), British Journal of Pharmacology 1998 (cilobradine); cited from earlier work
conscious dogs = assay: Heart rate and arterial blood pressure by telemetry in conscious dogs; format: in vivo, dog
Procedure: Heart rate (HR) and arterial blood pressure (BP) were measured in conscious dogs using telemetry methodology. They received daily oral doses of 0.3 mg/kg over 5 days. HR measured prior drug administration was reduced from 64.0±6.81 beats per minute (bpm) to 50.5±5.54 bpm on day 5. maximal effect on HR were seen between 1.5 and 3.5 hours post-dosing and HR reached values between 45 and 53 bpm. No effect on arterial BP was seen.

[1] = test system: conscious, chronically instrumented dogs; assay: Hemodynamic action in conscious, chronically instrumented dogs; format: in vivo, dog; conditions: 2.5 mg/kg orally
Description: Hyodynamic Action in Conscious, Chronically Instrumented Dogs:
HR dropped by up to 40% while blood pressure was not affected. Left ventricular end-diastolic pressure rose. This effect on preload may be explained by prolongation of the filling period due to prolongation of diastolic duration. Renal blood flow was maintained and coronary blood flow decreased by up to 40% most likely as a consequence of a drop in myocardial oxygen demand.

anesthetized dogs = assay: Cardiovascular and electrocardiographic effects in anesthetized dogs; format: in vivo, dog
Procedure: Cardiovascular and Electrocardiographic Effects of Cilobradine (DKAH 3 CL) in Dogs:
The dose of 0.05 mg/kg reduced spontaneous HR by 23% whereas 0.1 mg/kg i.v. reduced HR by 42%. Systolic and diastolic pressure was not affected. The effective refractory times of the sinus and atrioventricular (AV) node increased with 0.05 mg/kg by 31% and 30% respectively.

healthy Beagle dogs = assay: Radiotelemetric pharmacodynamic study, repeated once and twice daily oral administration; format: in vivo, dog; conditions: for minimum of the first derivative of the left ventricular pressure against time (LVdP/dtmin) / maximum of the first derivative of the left ventricular pressure against time (LVdP/dtmax) / decrease of heart rate: healthy Beagle dogs; for minimum of the first derivative of the left ventricular pressure against time (LVdP/dtmin): from −2700 mmHg/s; for maximum of the first derivative of the left ventricular pressure against time (LVdP/dtmax): increased from 2700 mmHg/s; for decrease of heart rate: 0.3 mg/kg bodyweight oral, 2 mg/ml oral suspension
Procedure: A Radiotelemetric Study to Evaluate the Pharmacodynamic Effects of Cilobradine HCl 2 Mg/Ml Oral Suspension after Repeated Once and Twice Daily Oral Administration to Healthy Beagle Dogs
Cilobradine HCl 2 mg/ml oral suspension was given once or twice daily at doses of 0.3 mg/kg bodyweight to conscious, healthy Beagle dogs chronically implanted with a telemetry system. Heart rate, systolic blood pressure, diastolic blood pressure, aortic pressure, left ventricular pressure, electrocardiogram (ECG), and body temperature were recorded. Before each treatment sequence all dogs underwent a 24 hour pre-dosing measurement which served as a baseline (control) measurement. After dosing the dogs were left undisturbed for the duration of the study, which lasted 24 hours, with the exception of the second dosing 10-12 hours after the first treatment.

[2] = Lipophilicity profile of the active substance; format: physicochemical; conditions: neutral pH versus acidic pH
Description: Usually, EC/HPMC films show a sustained release behavior that is independent of pH. […] This, together with the coating applied, may have led to a slower release.

[3] = 0.3 mg/kg bodyweight once daily and twice daily in comparison to control
[4] = 0.3 mg/kg bodyweight once daily
[5] = 0.3 mg/kg bodyweight twice daily

COc1ccc(CCN(C)CCCN2CCc3cc(OC)c(OC)cc3CC2=O)cc1OC [zatebradine, reference compound]
effect on the Ih channel (Ih channel): can also be blocked

COc1ccc(CCN2CCC[C@H](CN3CCc4cc(OC)c(OC)cc4CC3=O)C2)cc1OC [Cilobradine, (+)-3-[(N-(2-(3,4-dimethoxy-phenyl)ethyl)-piperidin-3-(S)-yl)-methyl]-(7,8-dimethoxy-1,3,4,5-tetrahydro-2H-3-benzazepin-2-on)]
effect on arterial BP (conscious dogs; daily oral 0.3 mg/kg over 5 days): No effect | HR measured prior drug administration on day 5 (conscious dogs; daily oral doses of 0.3 mg/kg over 5 days, reduced from 64.0±6.81 bpm): 50.5±5.54 bpm | blood pressure [1]: not affected | decrease of coronary blood flow [1]: up to 40% | drop of HR [1]: up to 40% | left ventricular end-diastolic pressure [1]: rose | renal blood flow [1]: maintained | effect on the Ih channel (Ih channel): can also be blocked | increase of effective refractory time of the atrioventricular (AV) node (anesthetized dogs; 0.05 mg/kg i.v.): 30% | increase of effective refractory time of the sinus node (anesthetized dogs; 0.05 mg/kg i.v.): 31% | reduction of spontaneous HR (anesthetized dogs; 0.05 mg/kg i.v.): 23% | reduction of spontaneous HR (anesthetized dogs; 0.1 mg/kg i.v.): 42% | systolic and diastolic pressure (anesthetized dogs; 0.05 or 0.1 mg/kg i.v.): not affected

COc1ccc(CCN2CCC[C@H](CN3CCc4cc(OC)c(OC)cc4CC3=O)C2)cc1OC.Cl [cilobradine HCl, (+)-3-[(N-(2-(3,4-dimethoxy-phenyl)ethyl)-piperidin-3-(S)-yl)-methyl]-(7,8-dimethoxy-1,3,4,5-tetrahydro-2H-3-benzazepin-2-on hydrochloride)]
inotropic effect (FIG. 1) (healthy Beagle dogs; [3]): positive inotropic effect | lusitropic effect (FIG. 2) (healthy Beagle dogs; [3]): positive lusitropic effect | minimum of the first derivative of the left ventricular pressure against time (LVdP/dtmin) (healthy Beagle dogs; [4]): −3000 mmHg/s | maximum of the first derivative of the left ventricular pressure against time (LVdP/dtmax) (healthy Beagle dogs; [4]): 3000 mmHg/s | decrease of heart rate (healthy Beagle dogs; repeated once daily): approximately 25% | decrease of heart rate (healthy Beagle dogs; repeated twice daily): ~30% | minimum of the first derivative of the left ventricular pressure against time (LVdP/dtmin) (healthy Beagle dogs; [5]): −3550 mmHg/s | maximum of the first derivative of the left ventricular pressure against time (LVdP/dtmax) (healthy Beagle dogs; [5]): 3550 mmHg/s | lipophilicity profile [2]: slightly more lipophilic at neutral pH values

Source: US20140171415A1, “FUNNY CURRENT (IF) INHIBITORS FOR USE IN A METHOD OF TREATING AND PREVENTING HEART DISEASE IN CANINE” (Boehringer Ingelheim Vetmedica GmbH, priority 2012, published 2014)
